The source of these data is patent publication US11667602B2, “Compounds and their use” (AstraZeneca AB, priority 2020, dated 2023).

SMILES strings stand for the structures.

Broadly, the EC50 is the concentration needed to bring the measured effect to its halfway point.

This assay deals with T1, human RXFP1 (Homo sapiens, UniProt Q9HBX9).
T1 sequence (Q9HBX9 1-757): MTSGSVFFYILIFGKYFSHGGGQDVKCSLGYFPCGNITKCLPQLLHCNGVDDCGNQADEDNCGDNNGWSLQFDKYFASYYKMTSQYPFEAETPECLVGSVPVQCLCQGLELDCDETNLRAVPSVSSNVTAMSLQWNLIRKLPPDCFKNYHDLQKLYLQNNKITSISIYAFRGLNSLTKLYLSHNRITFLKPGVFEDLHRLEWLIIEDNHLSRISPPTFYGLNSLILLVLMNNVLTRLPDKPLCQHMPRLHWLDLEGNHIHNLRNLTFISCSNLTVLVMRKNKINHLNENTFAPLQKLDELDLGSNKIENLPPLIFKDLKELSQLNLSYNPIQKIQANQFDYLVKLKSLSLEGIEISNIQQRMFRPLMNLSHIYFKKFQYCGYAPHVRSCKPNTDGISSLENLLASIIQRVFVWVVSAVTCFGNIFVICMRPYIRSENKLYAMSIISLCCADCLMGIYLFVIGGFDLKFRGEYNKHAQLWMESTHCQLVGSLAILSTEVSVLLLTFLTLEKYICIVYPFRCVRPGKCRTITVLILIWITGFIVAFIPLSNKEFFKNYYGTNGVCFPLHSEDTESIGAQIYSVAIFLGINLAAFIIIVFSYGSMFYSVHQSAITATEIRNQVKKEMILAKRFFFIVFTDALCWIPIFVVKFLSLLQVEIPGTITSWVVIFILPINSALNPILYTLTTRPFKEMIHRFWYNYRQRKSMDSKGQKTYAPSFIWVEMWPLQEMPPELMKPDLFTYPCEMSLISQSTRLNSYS
Briefly: RXFP1 Hu cAMP (Test A). It counts as cell-based. The note with it: RXFP1 Hu cAMP; for EC50: read-out: Test A EC50. More on the design: expressed in transfected cells; host or cells: Jump-In T-REx CHO-K1 cells (ThermoFisher), induced with 10 ng/ml doxycycline for 24 h. The essentials: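 Cells: CHO-K1 stably carrying human RXFP1, expressed after 24 h 10 ng/ml doxycycline; 0.5 mM IBMX final, HTRF detection after 2 h at room temperature.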

Regarding `COc1cc(F)c(O[C@H]2CC[C@@](CO)(C(=O)O)CC2)cc1C(=O)NC1C2CCC(C2)C1C(=O)Nc1cccc(S(=O)(=O)C(F)(F)F)c1` (single isomer, unassigned) [Example 584, (1R,4s)-4-(2-Fluoro-4-methoxy-5-(((1S*,2S*,3R*,4R*)-3-((3-((trifluoromethyl)sulfonyl)phenyl)carbamoyl)bicyclo[2.2.1]heptan-2-yl)carbamoyl)phenoxy)-1-(hydroxymethyl)cyclohexane-1-carboxylic acid], the “Test A Sinf” value turned out to be 106% and the EC50 was 0.7 nM.

Consider `CC1(CNC(=O)C2C3CCC(CC3)C2NC(=O)c2cc(O[C@H]3CC[C@@](C)(C(=O)O)CC3)c(C#N)cc2F)CCC1` (single isomer, unassigned) [Example 588, (1R,4s)-4-(2-Cyano-4-fluoro-5-(((2S*,3R*)-3-(((1-methylcyclobutyl)methyl)carbamoyl)bicyclo[2.2.2]octan-2-yl)carbamoyl)phenoxy)-1-methylcyclohexane-1-carboxylic acid], for which the “Test A Sinf” value is on record as 95% and the EC50 was 7.6 nM.

In the case of `COc1cc(F)c(-c2ccc(C(=O)O)cc2)cc1C(=O)N[C@H]1[C@@H]2CC[C@@H](C2)[C@H]1C(=O)Nc1ccc(F)c(C(F)(F)F)c1` (single isomer, unassigned) [Example 590], the EC50 is greater than 40000 nM.

As for `COc1cc(F)c(O[C@H]2CC[C@@](C)(C(=O)O)CC2)cc1C(=O)N[C@@H]1C[C@H](OC)C[C@@H]1C(=O)Nc1cccc(S(=O)(=O)C(F)(F)F)c1` (stereo in doubt) [Example 335], the “Test A Sinf” value is given as 104% and the concentration for a half-maximal effect (EC50) was 540 nM.

With `COc1cc(C#N)c(O[C@H]2CC[C@@](C)(C(=O)O)CC2)cc1C(=O)N[C@@H]1[C@H]2CC[C@H](C2)[C@@H]1C(=O)NC(C)(C)c1ccccc1` [Example 108], the “Test A Sinf” value is on record as 106% and the EC50 worked out at 340 nM.

Regarding `COc1cc(C#N)c(O[C@H]2CC[C@@](C)(C(=O)O)CC2)cc1C(=O)N[C@@H]1[C@H]2CC[C@H](C2)[C@@H]1C(=O)NCc1cccc(C)c1` [Example 115], the “Test A Sinf” value is on record as 94% and the EC50 stood at 220 nM.

In the case of `CCCNC(=O)[C@H]1[C@@H]2CC[C@@H](C2)[C@H]1NC(=O)c1cc(O[C@H]2CC[C@@](C)(C(=O)O)CC2)c(C#N)cc1OC` [Example 116, (1S,4s)-4-(2-Cyano-4-methoxy-5-(((1S,2R,3S,4R)-3-(propylcarbamoyl)bicyclo[2.2.1]heptan-2-yl)carbamoyl)phenoxy)-1-methylcyclohexane-1-carboxylic acid], the “Test A Sinf” value came out at 106% and the concentration for a half-maximal effect (EC50) amounted to 860 nM.

Turning to `CCCCCCNC(=O)[C@H]1[C@@H]2CC[C@@H](C2)[C@H]1NC(=O)c1cc(O[C@H]2CC[C@@](C)(C(=O)O)CC2)c(C#N)cc1OC` [Example 117], the “Test A Sinf” value turned out to be 100% and the EC50 turned out to be 110 nM.

Take `COc1cc(C#N)c(O[C@H]2CC[C@@](C)(C(=O)O)CC2)cc1C(=O)N[C@@H]1[C@H]2CC[C@H](C2)[C@@H]1C(=O)NC[C@H](C)c1ccccc1` [Example 118]: the “Test A Sinf” value is on record as 99% and the EC50 turned out to be 43 nM.

Consider `COc1cc(C#N)c(O[C@H]2CC[C@@](C)(C(=O)O)CC2)cc1C(=O)N[C@@H]1[C@H]2CC[C@H](C2)[C@@H]1C(=O)N[C@@H](C)C(C)(C)C` [Example 119], for which the “Test A Sinf” value was 99% and the EC50 came to 560 nM.

With `COc1cc(C#N)c(O[C@H]2CC[C@@](C)(C(=O)O)CC2)cc1C(=O)N[C@@H]1[C@H]2CC[C@H](C2)[C@@H]1C(=O)N[C@H](C)C1CCCCC1` [Example 120], the “Test A Sinf” value is on record as 95%.

In the case of `COc1cc(C#N)c(O[C@H]2CC[C@@](C)(C(=O)O)CC2)cc1C(=O)N[C@@H]1[C@H]2CC[C@H](C2)[C@@H]1C(=O)NC1CCCCC1` [Example 121], the “Test A Sinf” value came to 98% and the EC50 amounted to 130 nM.

Turning to `COc1cc(C#N)c(O[C@H]2CC[C@@](C)(C(=O)O)CC2)cc1C(=O)N[C@@H]1[C@H]2CC[C@H](C2)[C@@H]1C(=O)NCCCOC(C)C` [Example 122], the “Test A Sinf” value is on record as 71% and the EC50 was found to be 1300 nM.

In the case of `COc1cc(C#N)c(O[C@H]2CC[C@@](C)(C(=O)O)CC2)cc1C(=O)N[C@@H]1[C@H]2CC[C@H](C2)[C@@H]1C(=O)NCc1ccc(F)c(F)c1` [Example 123], the “Test A Sinf” value stood at 107% and the EC50 was determined as 720 nM.

In the case of `COc1cc(C#N)c(O[C@H]2CC[C@@](C)(C(=O)O)CC2)cc1C(=O)N[C@@H]1[C@H]2CC[C@H](C2)[C@@H]1C(=O)NC[C@H]1C[C@@H](C)C1` [Example 124], the “Test A Sinf” value was found to be 101% and the EC50 was found to be 160 nM.

For `COc1cc(C#N)c(O[C@H]2CC[C@@](C)(C(=O)O)CC2)cc1C(=O)N[C@@H]1[C@H]2CC[C@H](C2)[C@@H]1C(=O)NC[C@@H](C)c1ccccc1` [Example 125], the “Test A Sinf” value was 116% and the EC50 came to 16 nM.

Regarding `CCC(C)(C)NC(=O)[C@H]1[C@@H]2CC[C@@H](C2)[C@H]1NC(=O)c1cc(O[C@H]2CC[C@@](C)(C(=O)O)CC2)c(C#N)cc1OC` [Example 126], the “Test A Sinf” value is reported as 98% and the EC50 came out at 47 nM.

Regarding `COc1cc(C#N)c(O[C@H]2CC[C@@](C)(C(=O)O)CC2)cc1C(=O)N[C@@H]1[C@H]2CC[C@H](C2)[C@@H]1C(=O)N[C@@H](C)C(C)C` [Example 127], the “Test A Sinf” value was determined as 71% and the EC50 is 990 nM.

Turning to `COc1cc(C#N)c(O[C@H]2CC[C@@](C)(C(=O)O)CC2)cc1C(=O)N[C@@H]1[C@H]2CC[C@H](C2)[C@@H]1C(=O)NC1CCC(C)(C)CC1` [Example 128], the “Test A Sinf” value stood at 88% and the EC50 was 46 nM.

Regarding `COc1cc(C#N)c(O[C@H]2CC[C@@](C)(C(=O)O)CC2)cc1C(=O)N[C@@H]1[C@H]2CC[C@H](C2)[C@@H]1C(=O)NCC(C)(C)OC` [Example 129], the “Test A Sinf” value is reported as 107% and the 50% effective concentration (EC50) was found to be 240 nM.

With `COc1cc(C#N)c(O[C@H]2CC[C@@](C)(C(=O)O)CC2)cc1C(=O)N[C@@H]1[C@H]2CC[C@H](C2)[C@@H]1C(=O)NCCC(C)(C)C` [Example 130], the “Test A Sinf” value came to 95% and the concentration for a half-maximal effect (EC50) was determined as 78 nM.

In the case of `COc1cc(C#N)c(O[C@H]2CC[C@@](C)(C(=O)O)CC2)cc1C(=O)N[C@@H]1[C@H]2CC[C@H](C2)[C@@H]1C(=O)NC[C@@H](F)c1ccccc1` [Example 131], the “Test A Sinf” value was 99% and the concentration giving a half-maximal response (EC50) is 84 nM.

With `COc1cc(C#N)c(O[C@H]2CC[C@@](C)(C(=O)O)CC2)cc1C(=O)N[C@@H]1[C@H]2CC[C@H](C2)[C@@H]1C(=O)NCCCC1CC1` [Example 132], the “Test A Sinf” value stood at 113%.

On to `COc1cc(C#N)c(O[C@H]2CC[C@@](C)(C(=O)O)CC2)cc1C(=O)N[C@@H]1[C@H]2CC[C@H](C2)[C@@H]1C(=O)NCCC1CC1` [Example 133], for which the “Test A Sinf” value is 100% and the EC50 was 450 nM.

Take `COc1cc(C#N)c(O[C@H]2CC[C@@](C)(C(=O)O)CC2)cc1C(=O)N[C@@H]1[C@H]2CC[C@H](C2)[C@@H]1C(=O)N[C@H]1CCCC[C@H]1CC(F)(F)F` [Example 134]: the “Test A Sinf” value worked out at 104% and the EC50 turned out to be 44 nM.

For `COc1cc(C#N)c(O[C@H]2CC[C@@](C)(C(=O)O)CC2)cc1C(=O)N[C@@H]1[C@H]2CC[C@H](C2)[C@@H]1C(=O)NCCCF` [Example 135], the “Test A Sinf” value was determined as 76%.

As for `COc1cc(C#N)c(O[C@H]2CC[C@@](C)(C(=O)O)CC2)cc1C(=O)N[C@@H]1[C@H]2CC[C@H](C2)[C@@H]1C(=O)NCc1cc(C)ccc1C` [Example 136], the “Test A Sinf” value was determined as 102% and the EC50 was 29 nM.

For `COc1cc(C#N)c(O[C@H]2CC[C@@](C)(C(=O)O)CC2)cc1C(=O)N[C@@H]1[C@H]2CC[C@H](C2)[C@@H]1C(=O)NCC1CCOCC1` [Example 137], the “Test A Sinf” value came to 93% and the EC50 is greater than 2300 nM.

As for `COc1cc(C#N)c(O[C@H]2CC[C@@](C)(C(=O)O)CC2)cc1C(=O)N[C@@H]1[C@H]2CC[C@H](C2)[C@@H]1C(=O)NCC(C)(C)CO` [Example 138], the “Test A Sinf” value amounted to 100% and the EC50 is 1200 nM.

`COc1cc(C#N)c(O[C@H]2CC[C@@](C)(C(=O)O)CC2)cc1C(=O)N[C@@H]1[C@H]2CC[C@H](C2)[C@@H]1C(=O)NC1CCCC1` [Example 139]: the “Test A Sinf” value is 95% and the concentration giving a half-maximal response (EC50) turned out to be 160 nM.

Consider `COc1cc(C#N)c(O[C@H]2CC[C@@](C)(C(=O)O)CC2)cc1C(=O)Nc1cc(Cl)ccc1C(=O)NCC1CCCCCC1` [Example 157, (1s,4s)-4-(5-((5-Chloro-2-((cycloheptylmethyl)carbamoyl)phenyl)carbamoyl)-2-cyano-4-methoxyphenoxy)-1-methylcyclohexane-1-carboxylic acid], for which the “Test A Sinf” value amounted to 118% and the EC50 turned out to be 88 nM.
